Assays:
Assay type in all cases: cell-based, human
[1] = system: autologous DC electroporated with RNA; assay: 51Cr-release CTL-assay against autologous DC electroporated with RNA
Procedure: (§1) In the CTL-assays, tumor cells, peptide-pulsed cells of different cell lines and autologous DC were used as target cells. Peptide-pulsed cells were pulsed with 50 μg/ml peptide (SEQ ID No. 1 or SEQ ID No. 2) for 2 hours. All target cells were labeled with [^51Cr] sodium chromate in RP10 (RPMI 1640, supplemented with 10% heat inactivated calf serum and antibiotics) for 1 hour at 37° C. Subsequently, 10^4 cells/well were transferred to a 96-well round bottomed plate. Varying numbers of CTL were added to give a final volume of 200 μl and incubated for 4 hours at 37° C. At the end of the assays, supernatants (50 μl/well) were harvested and counted in a beta-plate counter. […] The spontaneous and maximal release were determined in the presence of either medium or 2% Triton X-100, respectively.
In a next experiment, the cytotoxic activity of CTL in an autologous setting was analyzed. In doing so, autologous DC, generated from the same PBMNC that were utilized for CTL induction (see under 2.2.), were used as target cells. Prior to the CTL-assay, the DC were electroporated with RNA, which was previously isolated either from tumor cell lines or which represented control-RNA (in vitro transcribed EGFP-RNA, enhanced Green fluorescent protein-RNA); plasmide: pSP64 Poly(A) EGFPII, obtained from Van Tendeloo, Antwerp, Belgium). Total RNA of tumor cells was isolated with the QIAGEN Rneasy Mini Kit (QIAGEN, Hilden, Germany) according to the manufacturer's protocol. Quantity and purity of RNA were determined by spectrophotometry and stored in aliquots at −80° C.
Prior to electroporation on day 6, immature DC were washed twice with serum-free X-VIVO 20 medium (BioWhittaker, Walkersville, USA) and resuspended to a final concentration of 2×10^7 cells/ml. Subsequently, 200 μl of the cell suspension were mixed with 10 μg of total RNA and electroporated in a 4 mm-cuvette using an Easyject Plus™ (Peglab, Erlangen, Germany) (parameters: 300 V, 150 μF, 1540Ω, pulse time 231 ms). After electroporation the cells were immediately transferred into RP10 medium and returned to the incubator.

[2] = system: dendritic cells (DC); assay: 51Cr-release CTL-assay against peptide-pulsed DC; conditions: for lysis of DC pulsed with the peptide: CTL induced with SEQ ID No. 1 (FIG. 2b) or SEQ ID No. 2 (FIG. 2d), targets pulsed 50 μg/ml 2 hours
Procedure: Peripheral blood mononuclear cells (PBMNC) were isolated by Ficoll/Paque—(Biochrom, Berlin, Germany)—density gradients centrifugation of heparinized blood obtained from buffy coat preparations of healthy volunteers from the blood bank of the University of Tübingen. Cells were seeded (1×10^7 cells/3 ml per well) into 6-well plates (Falcon, Heidelberg, Germany) in RP10 media (RPMI 1640, supplied with 10% heat-inactivated fetal calf serum and with antibiotics). After 2 hours of incubation at 37° C. and 5% CO2, non-adherent cells were removed and the adherent blood monocytes were cultured in RP10 medium supplemented with the following cytokins: human recombinant GM-CSF (granulocyte makrophage colony stimulating factor; Leukomax, Novartis; 100 ng/ml), Interleukin IL-4 (R&D Systems, Wiesbaden, Germany, 1000 IU/ml) and TNF-α (tumor necrosis factor α) (R&D Systems, Wiesbaden, Germany, 10 ng/ml).
For CTL induction, the DC obtained in step 2.1 (5×10^5) were pulsed with the peptides obtained in step 2.2 with SEQ ID No. 1 or SEQ ID No. 2, each with 50 μg/ml for 2 hours, washed and incubated with 2.5×10^6 autologous PBMNC in RP10 medium.
After 7 days of culture, cells were restimulated with autologous PBMNC pulsed with peptides. In doing so, 1 ng/ml human recombinant Interleukin IL-2 (R&D Systems) was added on days 1, 3 and 5. The cytolytic activity of thereby induced CTL was analyzed on day 5 after the last restimulation in a standard ^51Cr-release-assay (see below, under 2.4: CTL-assay).
In the CTL-assays, tumor cells, peptide-pulsed cells of different cell lines and autologous DC were used as target cells. Peptide-pulsed cells were pulsed with 50 μg/ml peptide (SEQ ID No. 1 or SEQ ID No. 2) for 2 hours. […] At the end of the assays, supernatants (50 μl/well) were harvested and counted in a beta-plate counter. […] The spontaneous and maximal release were determined in the presence of either medium or 2% Triton X-100, respectively. […]

[3] = system: A 498 (renal cell carcinoma); assay: 51Cr-release CTL-assay against tumor cell line A 498
Procedure: as §1
(§2) Next, it was tested, in a standard tumor ^51Cr-release-assays again, whether CTL specific for the c-Met-peptide with SEQ ID No. 1 or for adipophilin-peptide with SEQ ID No. 2 recognized and lysed tumor cells, which endogenously express the c-Met-protooncogene or adipophilin. […]

[4] = system: MeI 1479 (Malignant melanoma); assay: 51Cr-release CTL-assay against tumor cell line MeI 1479; conditions: cell line MEL 1479 / MeI 1479, FIG. 3c / 3f
Procedure: as §1, §2

[5] = system: U 266 (multiple myeloma); assay: 51Cr-release CTL-assay against tumor cell line U 266; conditions: cell line U 266, FIG. 3d / 3e
Procedure: as §1, §2

Sequence | lysis of autologous DC electroporated with tumor RNA by CTL induced with the peptide ([1]; RNA of A 498, FIG. 5a / 5b) | lysis of autologous DC electroporated with tumor RNA by CTL induced with the peptide ([1]; RNA of MCF-7, FIG. 5a) | lysis of autologous DC electroporated with RNA by CTL induced with the peptide ([1]; RNA of non-C-met-expressing cell line Croft, FIG. 5a) | lysis of DC pulsed with the peptide [2] | lysis of tumor cells by CTL induced with the peptide ([3]; cell line A 498, FIG. 3b) | lysis of tumor cells by CTL induced with the peptide [4] | lysis of tumor cells by CTL induced with the peptide [5] | lysis of autologous DC electroporated with RNA by CTL induced with the peptide ([1]; control (EGFP) RNA, FIG. 5b) | lysis of autologous DC pulsed with the peptide by CTL induced with the peptide ([2]; autologous setting, FIG. 5b) | lysis of tumor cells by CTL induced with the peptide ([3]; cell line A 494, FIG. 3e)
YVDPVITSI (listed as Homo sapiens) [SEQ ID No. 1, HLA-A*02 ligand, met proto-oncogen 654-662] | specific lysis | specific lysis | not lysed | lysed | efficiently lyse | efficiently lyse | efficiently lyse |  |  | 
SVASTITGV (listed as Homo sapiens) [SEQ ID No. 2, HLA-A*02 ligand, adipose differentiation-related protein 129-137] | lysed |  |  | lysed |  | efficiently lyse | efficiently lyse | not lysed | lysed | efficiently lyse
